Reference: patent US7348153B2, “Method for identifying and designing immunogenic peptides” (Health Research, Inc., priority 2004, dated 2008)
Marks after values point to notes of the source that are not given here.

How the values were obtained:
Assay type in all cases: cell-based, human
[1] = tested on: PBMCs from melanoma patients; assay: PBMC proliferation assay (tritiated thymidine incorporation); conditions: for stimulation index: both peptides
Protocol: For proliferation assays, PBMCs were cultured in tetra-triplicate in 96-well flat-bottomed microtiter plates (Costar Corp., Cambridge, Mass.) at the concentration of 2×10^5 cells/well in 100 μl of complete RPMI 1640 containing L-glutamine and 10% fetal bovine serum. […] PBMCs were cultured for 6 days at 37° C. in a 5% CO2 atmosphere before addition of tritiated thymidine at a concentration of 1 μCi/well. Results are expressed as cpm of tritiated thymidine incorporated and as a stimulation index (Hogan et al. J Immunol 1989; 142:2097-104). The latter is the average cpm of lymphocytes cultured with peptide divided by the average cpm of lymphocytes cultured without peptide. […] After 5 additional days of culture at 37° C. cells were washed, replated, and restimulated at a 1:1 stimulator to responder ratio with irradiated (30 Gy) autologous PBMC stimulators and peptides at concentrations of 5, 25, and 50 μg/ml. IL-2 was added after 96 h, and cells were cultured for an additional 5 days at 37° C., after which they were restimulated for an additional 10 days at 37° C. Lymphocytes stimulated over three cycles were collected and used as effectors in a cytotoxicity (CTL) assay.

[2] = tested on: T2 cells pulsed with peptide; assay: 51Cr release CTL assay against peptide-pulsed T2 cells; conditions: for lysis of T2-I-100 by peptide-stimulated CTL: immunized HLA-A2+ patients 1 and 6, E:T 30:1, 4 hour 51Cr release; for lysis of T2 cells pulsed with the stimulating peptide by peptide-stimulated CTL: nonimmunized HLA-A2+ patient 4, E:T 30:1, 4 hour; for lysis of T2-I-100 and T2-I-102 targets by peptide-stimulated lymphocytes: nonimmunized HLA-A2− patient 5
Text: FIGS. 5A-5E are graphical representations of cytolytic activity of NP, I-100 and I-102-CTL from HLA-A2 immunized patients # 1 and # 6 (FIGS. 5A and 5B, respectively) and from HLA-A2, non-immunized patient # 4 (FIG. 5C) against T2-NP (▪) and T2-I-100 (□) targets. FIG. 5D depicts lytic activity of NP- and I-102-CTL from HLA-A2^− patient #3 against T2-NP (▪) and T2-I-100 (□) targets. FIG. 5E depicts CTL lysis by NP-, I-100-, and I-102-CTL effectors from […] patient #5 against T2-I-100 targets. The E:T ratio was 30:1 in a 4 hour 51Cr release assay; bars, ±S D.
For proliferation assays, PBMCs were cultured in tetra-triplicate in 96-well flat-bottomed microtiter plates (Costar Corp., Cambridge, Mass.) at the concentration of 2×10^5 cells/well in 100 μl of complete RPMI 1640 containing L-glutamine and 10% fetal bovine serum. Peptides I-100 and I-101 were added at 5, 25, and 50 μg/ml in serum-free RPMI 1640 up to a total volume of 200 μl. PBMCs were cultured for 6 days at 37° C. in a 5% CO2 atmosphere before addition of tritiated thymidine at a concentration of 1 μCi/well. Results are expressed as cpm of tritiated thymidine incorporated and as a stimulation index (Hogan et al. J Immunol 1989; 142:2097-104). The latter is the average cpm of lymphocytes cultured with peptide divided by the average cpm of lymphocytes cultured without peptide. […] Peptide-specific T cells were propagated by adding recombinant interleukin (IL)2 (90 IU/ml; Biosource International, Camarillo, Calif.) to PBMCs that had been cultured for 96 h at 37° C. with peptides. After 5 additional days of culture at 37° C. cells were washed, replated, and restimulated at a 1:1 stimulator to responder ratio with irradiated (30 Gy) autologous PBMC stimulators and peptides at concentrations of 5, 25, and 50 μg/ml. IL-2 was added after 96 h, and cells were cultured for an additional 5 days at 37° C., after which they were restimulated for an additional 10 days at 37° C. Lymphocytes stimulated over three cycles were collected and used as effectors in a cytotoxicity (CTL) assay.
(§1) To determine the effects of the immunization with […] on activation of melanoma cell-lytic CTLs, we compared the responses of immunized HLA-A2^+ patients 1 and 6 with that of nonimmunized HLA-A2^+ patient 4. As specificity and restriction control we analyzed the responses of nonimmunized HLA-A2^− patients 3 and 5. All of the CTLs were tested for their ability to lyse T2 cells pulsed with the stimulating peptide and A375sm melanoma cells. Lymphocytes collected after three rounds of peptide stimulation were tested for their ability to lyse ^51Cr-labeled targets as described previously (Fisk, et al. J Exp Med 1998;181:2109-17; Murray, et al. Clin Cancer Res 2002;11:3407-18). […] Cold target inhibition of tumor cell lysis experiments was performed as described (Murray, et al. Clin Cancer Res 2002;11:3407-18).

A375SM melanoma cells = assay: 51Cr release CTL assay against A375SM melanoma cells; conditions: for lysis of A375SM cells by peptide-stimulated PBMCs: immunized HLA-A2+ patient 1
Protocol: NP-, I-100, and I-102 on the abscissa indicate corresponding CTL effectors. NP-CTL indicates CTL stimulated by T2 cells and IL-2 without addition of peptides. […] The E:T ratio was 20:1 in a 20 h ^51Cr release assay. FIG. 6C depicts the kinetics of A375SM melanoma cell lysis by NP-CTL (∘), I-100-CTL (●), and I-102-CTL (▴). CTL were incubated with target cells for up to 20 h.
as §1
To determine whether in vitro stimulation with peptides generated CTLs that recognized epitopes on HMW-MAA^+/HLA-A2^+ melanoma cells, PBMCs from immunized HLA-A2^+ patients 1 and 6 were stimulated with I-100 and 1-102 peptides and then tested for their ability to lyse A375SM melanoma cells. […] Therefore, these effectors were designated as I-100 CTL and I-102 CTL, respectively.

[3] = tested on: PBMCs from melanoma patients; assay: IFN-γ and IL-10 release by peptide-stimulated PBMC (double sandwich ELISA); conditions: for IL-10 levels after restimulation / IFN-γ levels: HLA-A2+ patient 6, 2° STIM, 25 μg/ml; for IFN-γ levels: comparison between peptides (P>0.05); for IFN-γ:IL-10 ratio: 2° STIM; for average IFN-γ levels after 2° STIM: peptides 25 μg/ml
Protocol: Interaction of T cells with Ag can induce a few cycles of division resulting in Ag-primed uncommitted T cells or can induce T cells to differentiate and gain effector function. The effector function is best characterized by the ability of Ag-stimulated T cells to secrete Th1 cytokines and to mediate lysis of specific targets. To determine whether T cells from immunized patients acquired cytokine effector function, IFN-γ and IL-10 were measured in supernatants harvested from PBMC cultures stimulated with I-100 and I-102 peptides. To measure cytokine release, supernatants were collected at 24, 48, and 72 h after primary and secondary stimulation with 5, 25, and 50 μg/ml of peptides and stored frozen at −20° C. IFN-γ and IL-10 levels were measured by a double sandwich ELISA using the corresponding kits supplied by Biosource International. Assays were calibrated with human recombinant IFN-γ and IL-10 to detect each cytokine in a range of 15-1000 pg/ml.
IL-10 was assayed instead of IL-4 as a representative Th2 cytokine, because the PBMCs used as responders were from patients with melanoma. Therefore, they might contain regulatory cells. Patient 6 had supernatants saved from two separate experiments. […] Because after priming, all of the stimulated PBMCs were expanded in IL-2, we determined the effect of culturing PBMCs in IL-2 on IFN-γ induction.

[4] = patient 8, −/+, 1° STIM up to 6 days
[5] = HLA-A2+ patients 1, 2 and 6 immunized with MELIMMUNE
[6] = HLA-A2− patients 3, 5, 9 and 10 not immunized
[7] = patient 1, HLA-A2 phenotype/immunization +/+, 1° STIM up to 6 days
[8] = patient 2, +/+, 1° STIM up to 6 days
[9] = patient 3, HLA-A2 −, 1° STIM up to 6 days
[10] = patient 4, +/−, 1° STIM up to 6 days
[11] = patient 5, HLA-A2 −, 1° STIM up to 6 days
[12] = patient 6, +/+, 1° STIM up to 6 days
[13] = patient 7, −/+, 1° STIM up to 6 days
[14] = patient 9, −/−, 1° STIM up to 6 days
[15] = patient 10, −/−, 1° STIM up to 6 days
[16] = PBMCs from HLA-A2+ patient 6 and four HLA-A2− patients, preliminary experiments

E71: inactive HLA-A2 epitope from HER-2/neu protein, HER-2 (828-836) (QIAKGMSYL; UniProt P04626 828-836, looked up, fragment) [Peptide E71, reference compound]
tritiated thymidine incorporated ([1]; lymphocytes from HLA-A2+ immunized patients 1, 2 and 6 (NP=353±84 cpm)): 411±190 cpm
tritiated thymidine incorporated [1, 4]: 685±103 cpm

LLQLGYSGRL (designed peptide) [Peptide I-102]
lysis of T2-I-100 by peptide-stimulated CTL [2]: to a significantly greater extent than control targets T2-NP
lysis of T2 cells pulsed with the stimulating peptide by peptide-stimulated CTL [2]: lysed T2-I-102
lysis of T2-I-102 targets by peptide-stimulated CTL ([2]; nonimmunized HLA-A2− patient 3, compared with T2-NP): no specific lysis
lysis of T2-I-100 and T2-I-102 targets by peptide-stimulated lymphocytes [2]: unable to specifically lyse
lysis of A375SM cells by peptide-stimulated PBMCs (A375SM melanoma cells): effectively lysed A375SM cells
increase of lysis of A375SM cells from 5 h to 20 h (A375SM melanoma cells; peptide-stimulated CTL, kinetics of lysis): 59%
stimulation index [1, 5]: 2.7±0.7
stimulation index [1, 6]: 1.2±0.4
S.I. (stimulation index) [1, 7]: (3.3)
tritiated thymidine incorporated [1, 7]: 1519 ± 92^a cpm
S.I. (stimulation index) [1, 8]: (3.0)
S.I. (stimulation index) [1, 9]: (1.4)
S.I. (stimulation index) [1, 10]: (1.7)
S.I. (stimulation index) [1, 11]: (2.0)
S.I. (stimulation index) [1, 12]: (2.8)
tritiated thymidine incorporated [1, 12]: 1464 ± 53^a cpm
S.I. (stimulation index) [1, 13]: (1.2)
tritiated thymidine incorporated [1, 13]: 755 ± 56 cpm
S.I. (stimulation index) [1, 4]: (1.2)
tritiated thymidine incorporated [1, 4]: 650 ± 31 cpm
S.I. (stimulation index) [1, 14]: (0.9)
tritiated thymidine incorporated [1, 14]: 425 ± 40 cpm
S.I. (stimulation index) [1, 15]: (1.0
tritiated thymidine incorporated [1, 15]: 200 ± 20 cpm
IL-10 levels after restimulation [3]: 212 ± 24 pg/mL
IFN-γ levels [3]: similar
IFN-γ:IL-10 ratio ([3]; HLA-A2+ patients): 3.96
IFN-γ:IL-10 ratio ([3]; HLA-A2− patients): 0.97
IL-10 after 2° STIM ([3]; PBMCs from HLA-A2+ patients): 155.7 ± 36.3 pg/mL
average IFN-γ levels after 2° STIM ([3]; PBMCs from HLA-A2+ patients): 616.1 ± 86.3 pg/mL
IL-10 after 2° STIM ([3]; PBMCs from HLA-A2− patients): 61.1 ± 25 pg/mL

LLQLYSGRL (human; HMW-MAA) [Peptide I-101]
stimulation of proliferation [1, 16]: did not stimulate
stimulation of IFN-γ and IL-10 secretion [3, 16]: did not stimulate

LLVLLYSKL (mouse; mAb MF11-30) [Peptide I-100]
lysis of T2-I-100 by peptide-stimulated CTL [2]: to a significantly greater extent than control targets T2-NP
lysis of T2 cells pulsed with the stimulating peptide by peptide-stimulated CTL [2]: did not lyse T2-I-100
lysis of T2-I-100 and T2-I-102 targets by peptide-stimulated lymphocytes [2]: unable to specifically lyse
lysis of A375SM cells by peptide-stimulated PBMCs (A375SM melanoma cells): effectively lysed A375SM cells
stimulation index [1, 5]: 2.7±0.7
stimulation index [1, 6]: 1.2±0.4
S.I. (stimulation index) [1, 7]: (2.5)
tritiated thymidine incorporated [1, 7]: 1123 ± 240^a cpm
S.I. (stimulation index) [1, 8]: (3.3)
S.I. (stimulation index) [1, 9]: (1.1)
tritiated thymidine incorporated [1, 9]: 655 ± 51 cpm
S.I. (stimulation index) [1, 10]: (1.5)
S.I. (stimulation index) [1, 11]: (1.7)
S.I. (stimulation index) [1, 12]: (3.1)
tritiated thymidine incorporated [1, 12]: 1793 ± 58^a cpm
S.I. (stimulation index) [1, 13]: (1.1)
tritiated thymidine incorporated [1, 13]: 652 ± 77 cpm
S.I. (stimulation index) [1, 4]: (0.9)
tritiated thymidine incorporated [1, 4]: 490 ± 54 cpm
S.I. (stimulation index) [1, 14]: (0.7)
tritiated thymidine incorporated [1, 14]: 334 ± 26 cpm
S.I. (stimulation index) [1, 15]: (0.9)
tritiated thymidine incorporated [1, 15]: 184 ± 12 cpm
IL-10 levels after restimulation [3]: 86 ± 11 pg/mL
IFN-γ levels [3]: similar
IFN-γ and IL-10 levels ([3]; HLA-A2+ patient 6 and HLA-A2− patient 7, after 1° STIM): low
IFN-γ:IL-10 ratio ([3]; HLA-A2+ patients): 3.96
IFN-γ:IL-10 ratio ([3]; HLA-A2− patients): 0.97
IL-10 after 2° STIM ([3]; PBMCs from HLA-A2+ patients): 155.7 ± 36.3 pg/mL
average IFN-γ levels after 2° STIM ([3]; PBMCs from HLA-A2+ patients): 616.1 ± 86.3 pg/mL
IL-10 after 2° STIM ([3]; PBMCs from HLA-A2− patients): 61.1 ± 25 pg/mL
